The values that follow come from patent US7368578B2, “Five-membered heterocyclic compounds” (Takeda Pharmaceutical Company Limited, priority 2002, dated 2008).

For this experiment, the target named is T1, human PPARγ1 (Homo sapiens, UniProt P37231).
T1 construct: expressed in transfected cells; host or cells: CHO-K1 cells stably transfected with pVgRXR2-hPPARγ and reporter plasmid pGL3-4ERPP-TK neo
T1 sequence (P37231 1-477 isoform P37231-2): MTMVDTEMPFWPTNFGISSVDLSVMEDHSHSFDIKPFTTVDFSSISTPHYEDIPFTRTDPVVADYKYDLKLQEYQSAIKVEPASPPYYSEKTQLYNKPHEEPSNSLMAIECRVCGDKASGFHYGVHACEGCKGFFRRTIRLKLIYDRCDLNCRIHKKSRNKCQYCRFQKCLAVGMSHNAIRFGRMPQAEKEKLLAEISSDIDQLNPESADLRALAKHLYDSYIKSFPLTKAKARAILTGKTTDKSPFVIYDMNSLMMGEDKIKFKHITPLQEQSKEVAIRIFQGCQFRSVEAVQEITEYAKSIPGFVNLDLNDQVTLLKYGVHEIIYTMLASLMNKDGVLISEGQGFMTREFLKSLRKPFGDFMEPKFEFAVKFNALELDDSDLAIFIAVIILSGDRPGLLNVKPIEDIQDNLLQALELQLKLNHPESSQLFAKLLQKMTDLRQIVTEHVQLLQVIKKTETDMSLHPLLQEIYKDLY
T1 sequence (P19793 1-462 partner): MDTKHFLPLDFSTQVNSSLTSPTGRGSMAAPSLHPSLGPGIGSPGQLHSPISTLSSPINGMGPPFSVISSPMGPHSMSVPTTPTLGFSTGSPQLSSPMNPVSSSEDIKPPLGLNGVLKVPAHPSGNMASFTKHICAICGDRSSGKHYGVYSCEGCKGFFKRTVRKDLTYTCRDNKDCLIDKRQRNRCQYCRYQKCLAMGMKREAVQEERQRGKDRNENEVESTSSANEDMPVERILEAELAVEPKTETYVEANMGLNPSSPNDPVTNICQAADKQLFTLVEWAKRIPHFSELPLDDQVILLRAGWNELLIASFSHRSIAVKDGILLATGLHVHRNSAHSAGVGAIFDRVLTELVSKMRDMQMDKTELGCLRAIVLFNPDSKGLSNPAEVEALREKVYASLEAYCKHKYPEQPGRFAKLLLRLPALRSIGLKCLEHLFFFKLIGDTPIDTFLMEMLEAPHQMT
The experiment is described as follows: Human PPARγ1 antagonist assay (luciferase reporter in PPARγ:RXRα:4ERPP/CHO-K1 cells). The conditions noted are these: 10 nM compound A as stimulant, luciferase activity, 24 hrs, read-out: Inhibitory rate (%); for inhibition at 1 µM: test compound 10^−6 M. It counts as cell-based.

With `CCc1nc(/C=C/c2cn(-c3ccccc3)nc2OCc2ccc(OCc3nc(-c4cccc(C(=O)O)c4)oc3C)c(OC)c2)co1` [Example 307], the inhibition at 1 µM came to 108%.
With `CCOP(=O)(/C=C/c1cn(-c2ccccc2)nc1OCc1ccc(OCc2nc(/C=C/C(=O)O)oc2C)c(OC)c1)OCC` [Example 315, (2E)-3-[4-({4-[({4-[(E)-2-(diethoxyphosphoryl)ethenyl]-1-phenyl-1H-pyrazol-3-yl}oxy)methyl]-2-methoxyphenoxy}methyl)-5-methyl-1,3-oxazol-2-yl]-2-propenoic acid], the inhibition at 10 µM (test compound 10^−5 M) amounted to 112%.
`CCOP(=O)(/C=C/c1cn(-c2ccccc2)nc1OCc1ccc(OCc2nc(-c3cccc(-c4nnn[nH]4)c3)oc2C)c(OC)c1)OCC` [Example 336, {(E)-2-(3-{[3-methoxy-4-({5-methyl-2-[3-(1H-tetrazol-5-yl)phenyl]-1,3-oxazol-4-yl}methoxy)benzyl]oxy}-1-phenyl-1H-pyrazol-4-yl)ethenyl}phosphonate diethyl]: the inhibition at 1 µM was 102%.
`CCc1nc(/C=C/c2cn(-c3ccccc3)nc2OCc2ccc(OCc3nc(-c4ccc(CC(=O)O)cc4)oc3C)c(OC)c2)cs1` [Example 337, {4-[4-({4-[({4-[(E)-2-(2-ethyl-1,3-thiazol-4-yl)ethenyl]-1-phenyl-1H-pyrazol-3-yl}oxy)methyl]-2-methoxyphenoxy}methyl)-5-methyl-1,3-oxazol-2-yl]phenyl}acetic acid]: the inhibition at 1 µM is 110%.
As to `CCn1cnc(/C=C/c2cn(-c3ccccc3)nc2OCc2ccc(OCc3nc(-c4ccc(CC(=O)O)cc4)oc3C)c(OC)c2)c1` [Example 344, (4-{4-[(4-[({4-[(E)-2-(1-ethyl-1H-imidazol-4-yl)ethenyl]-1-phenyl-1H-pyrazol-3-yl}oxy)methyl]-2-methoxyphenoxy)methyl]-5-methyl-1,3-oxazol-2-yl}phenyl)acetic acid], the inhibition at 1 µM turned out to be 103%.
Take `COc1cc(COc2nn(-c3ccccc3)cc2/C=C/c2csc(C)n2)ccc1OCc1nc(-c2ccc(CC(=O)O)cc2)oc1C` [Example 357, {4-[4-({2-methoxy-4-[({4-[(E)-2-(2-methyl-1,3-thiazol-4-yl)ethenyl]-1-phenyl-1H-pyrazol-3-yl}oxy)methyl]phenoxy}methyl)-5-methyl-1,3-oxazol-2-yl]phenyl}acetic acid]: the inhibition at 1 µM is 103%.
The same measure, in the same setting: for `COc1cc(COc2nn(-c3ccccc3)cc2/C=C/c2csc(C(C)C)n2)ccc1OCc1nc(-c2ccc(CC(=O)O)cc2)oc1C` [Example 361, {4-[4-({4-[({4-[(E)-2-(2-isopropyl-1,3-thiazol-4-yl)ethenyl]-1-phenyl-1H-pyrazol-3-yl}oxy)methyl]-2-methoxyphenoxy}methyl)-5-methyl-1,3-oxazol-2-yl]phenyl}acetic acid] the value was 110%; for `CCc1nc(/C=C/c2cn(-c3ccccc3)nc2OCc2ccc(OCc3nc(-c4ccc(CC(=O)O)cc4)oc3C)c(OC)c2)co1` [Example 369, {4-[4-({4-[({4-[(E)-2-(2-ethyl-1,3-oxazol-4-yl)ethenyl]-1-phenyl-1H-pyrazol-3-yl}oxy)methyl]-2-methoxyphenoxy}methyl)-5-methyl-1,3-oxazol-2-yl]phenyl}acetic acid], 108%.
`COc1cc(COc2nn(-c3ccccc3)cc2/C=C/c2coc(C(C)C)n2)ccc1OCc1nc(-c2ccc(CC(=O)O)cc2)oc1C` [Example 370, {4-[4-({4-[({4-[(E)-2-(2-isopropyl-1,3-oxazol-4-yl)ethenyl]-1-phenyl-1H-pyrazol-3-yl}oxy)methyl]-2-methoxyphenoxy}methyl)-5-methyl-1,3-oxazol-2-yl]phenyl}acetic acid]: the inhibition at 1 µM was 111%.
